Test results taken from patent publication US20250268880A1, “3-(Hydroxy)-Pyridin-4(1H)-One Compounds and Methods of Making and Using the Same” (Georgia Tech Research Corporation, priority 2018, published 2025).
Like-named read-outs stand apart in the source and are kept apart here. Blank lines part the entries; values can stand above or below the compound they belong to.

What was measured:
KDM6A (UTX) [1] = target: T1, KDM6A (UTX) (Homo sapiens, UniProt O15550); assay: biochemical; conditions: for inhibition at 1 µM: read-out: KDM6A (UTX) Inhibition (%) 1 (μM); for inhibition at 10 µM: read-out: KDM6A (UTX) Inhibition (%) 10 (μM)
T1 sequence (O15550 whole entry): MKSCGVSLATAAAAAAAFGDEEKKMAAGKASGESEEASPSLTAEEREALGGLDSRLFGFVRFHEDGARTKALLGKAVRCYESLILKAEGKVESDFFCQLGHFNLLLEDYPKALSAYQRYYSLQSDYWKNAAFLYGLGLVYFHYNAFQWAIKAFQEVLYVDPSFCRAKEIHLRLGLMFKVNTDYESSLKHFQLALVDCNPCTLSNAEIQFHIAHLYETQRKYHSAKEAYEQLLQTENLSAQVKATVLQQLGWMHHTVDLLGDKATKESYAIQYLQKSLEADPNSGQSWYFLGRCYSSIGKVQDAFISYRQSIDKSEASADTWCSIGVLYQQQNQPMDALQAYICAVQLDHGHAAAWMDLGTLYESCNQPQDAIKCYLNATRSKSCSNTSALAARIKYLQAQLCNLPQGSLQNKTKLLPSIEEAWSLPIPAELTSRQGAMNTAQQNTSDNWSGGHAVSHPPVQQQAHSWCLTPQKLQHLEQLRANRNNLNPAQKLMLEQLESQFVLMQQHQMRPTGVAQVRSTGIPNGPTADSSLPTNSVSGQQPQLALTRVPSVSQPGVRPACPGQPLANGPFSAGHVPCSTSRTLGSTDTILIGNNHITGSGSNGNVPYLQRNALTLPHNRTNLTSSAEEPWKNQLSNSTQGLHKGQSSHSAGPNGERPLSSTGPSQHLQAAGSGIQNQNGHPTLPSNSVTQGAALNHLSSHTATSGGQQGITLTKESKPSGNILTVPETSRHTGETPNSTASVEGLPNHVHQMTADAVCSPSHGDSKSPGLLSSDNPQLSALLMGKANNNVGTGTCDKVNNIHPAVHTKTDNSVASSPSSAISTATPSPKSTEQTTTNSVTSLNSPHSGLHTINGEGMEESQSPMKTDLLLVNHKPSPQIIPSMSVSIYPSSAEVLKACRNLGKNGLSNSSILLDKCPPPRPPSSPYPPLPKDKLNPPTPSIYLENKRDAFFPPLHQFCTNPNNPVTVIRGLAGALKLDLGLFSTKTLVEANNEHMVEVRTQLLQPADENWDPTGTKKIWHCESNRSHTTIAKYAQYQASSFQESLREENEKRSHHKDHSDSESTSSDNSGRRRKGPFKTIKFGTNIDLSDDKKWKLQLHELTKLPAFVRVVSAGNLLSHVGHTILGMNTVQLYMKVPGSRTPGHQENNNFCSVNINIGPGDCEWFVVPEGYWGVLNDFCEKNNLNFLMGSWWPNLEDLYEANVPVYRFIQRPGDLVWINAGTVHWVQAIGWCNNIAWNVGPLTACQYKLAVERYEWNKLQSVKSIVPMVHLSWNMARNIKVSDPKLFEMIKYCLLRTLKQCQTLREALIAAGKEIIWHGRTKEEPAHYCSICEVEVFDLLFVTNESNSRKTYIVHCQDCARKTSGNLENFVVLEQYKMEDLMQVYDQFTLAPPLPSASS

KDM6A (UTX) [2] = target: T1, KDM6A (UTX); conditions: for IC50 against KDM6A (in words): cell-free; for KDM6A (UTX) Inhibition (%) 1 (μM): compound at 1 μM; for KDM6A (UTX) Inhibition (%) 10 (μM): compound at 10 μM
[3] = tested on: HP1-mediated heterochromatin gene repression at the CiA:Oct4 locus; assay: HP1-recruitment assay (CiA:Oct4), % GFP (+) cells by flow cytometry; assay type: cell-based, mouse; conditions: 48 h, CIP-rapamycin HP1 recruitment
Source text: To elucidate the effect of DFP-based KDM inhibitors have on chromatin dynamics, we profiled them in an intracellular assay which measures heterochromatin formation speed. The chromatin assay (CiA) leverages chemical induced proximity (CTP) to recruit heterochromatin protein 1 (HP1) to a modified Oct4 locus. This reporter system inserts tandem arrays of Gal4 and zinc finger DNA binding domains in the promoter of one allele of Oct4, where the gene is replaced by a nuclear eGFP reporter. Protein fusions of Gal4-FKBP and FRRB—HP1 allow for direct chemical recruitment of HP1 to the CiA:Oct4 reporter locus upon addition of the chemical inducer of proximity (CIP)-rapamycin. After CIP-rapamycin addition, HIP1 is recruited to the reporter locus and brings histone methyltransferase enzymes to the chromatin reporter resulting in the repressive H3K9me3 mark being deposited. H3K9me3 deposition leads to heterochromatin formation and gene silencing (FIG. 7A). Others have shown that H3K4me3 marked nucleosomes impede H3K9 methyltransferases. Thus, we postulate that the active H3K4me3 mark mast be removed by KDM enzymes as part of the transformation from euchromatin to heterochromatin. Inhibition of KDMs, specifically those targeting H3K4me3, would result in a decrease in H3K9me3 accumulation, which would be measured in our assay as an increase in % GFP (+) cells.
To determine the effect of DFP-based KDM inhibitors on HP1-mediated gene repression, we treated CiA:Oct4 embryonic stem (ES) cells with doses of representative compounds ranging from […] for 48 h with and without CIP-rapamycin recruiting HP1 (FIG. 7B). […] Dose response curves of DFP derivatives abler 48 h with C) and without D) HP1 recruitment at 10000, 5000, 2500, 1000, 500, 250, and 0 nM concentrations. Flow cytometry was used to determine the % GFP (+) cells following treatment. n=6
The CiA:Oct4 recruitment system in mouse embryonic stem cells contains Gal4 and Zinc finger DNA binding arrays and a downstream nuclear eGFP gene in place of a single Oct4 allele as previously described. The CiA:Oct4 N118/N163 cell line containing viral integrations of N118 and N163 plasmids (N118-nLV EF-1α-Gal-FKBPx1-HA-PGK-Blast, N163-nLV EF-1α-HP1α (CS)-Frbx2(Frb+FrbWobb)-V5-PGK-Puro) was used for inhibition of HP1-mediated heterochromatin studies. All plasmids are freely available on addgene.
Day 0, CiA:Oct4 N118/163 cells were grown in ES media and seeded at a density of 10,000 cells per well (100.000 cells/ml) into gelatin coated 96 well plates. Day 1, culture media was aspirated and replaced with 100 μl ES media containing +/−6 nM rapamycin. 10 μM, 5 μM, 2.5 μM, 1 μM, 500 nM, and 250 nM concentrations of compound or DMSO were added using a TTP Labtech Mosquito HTS liquid handler. Days 2-4. fresh ES media+/−rapamycin and compound were added as in Day 1.
Day 3 and 5, cells were washed with PBS and trypsinized using 0.25% trypsin-EDTA. Trypsin was quenched with serum. Cells were resuspended by pipetting in preparation for flow cytometry analysis.
Flow cytometry data was acquired using the Intellicyt iQue Screener and analyzed with FlowJo software. Cell populations were gated based on forward and side scatter height. Single cell populations were gated using forward scatter area by forward scatter height. Autofluorescent cells were excluded and the remaining cells were gated into GFP (−) and GFP (+) populations based on DMSO control samples.

MDA-MB-231 (TNBC BCa) = assay: Cell viability assay (MTS), MDA-MB-231; assay type: cell-based; conditions: NI = no inhibition, read-out: Antiproliferative Activity IC50 (μM) MDA-MB-231

inhibition at 1 µM (KDM6A (UTX) [1]): 9% | inhibition at 10 µM (KDM6A (UTX) [1]): 100% | IC50 against KDM6A (in words) (KDM6A (UTX) [2]): low micromolar
SMILES: Cc1c(O)c(=O)ccn1C1CCC(CC2CCC(n3ccc(=O)c(O)c3C)CC2)CC1 (stereo not drawn) [Compound 3g, 1,1′-(Methylenebis(cyclohexane-4,1-diyl))bis(3-hydroxy-2-methylpyridin-4(1H)-one)]
concentration at which maximum inhibition of heterochromatin formation / gene repression is reached [3]: 2.5 µM | inhibition of heterochromatin formation (in words) [3]: significantly inhibited

KDM6A (UTX) Inhibition (%) 1 (μM) (KDM6A (UTX) [2]): 4% | KDM6A (UTX) Inhibition (%) 10 (μM) (KDM6A (UTX) [2]): 100%
SMILES: Cc1c(O)c(=O)ccn1CCCCn1ccc(=O)c(O)c1C [Compound 3a]

KDM6A (UTX) Inhibition (%) 1 (μM) (KDM6A (UTX) [2]): 1% | KDM6A (UTX) Inhibition (%) 10 (μM) (KDM6A (UTX) [2]): 99%
SMILES: Cc1c(O)c(=O)ccn1CCCCCn1ccc(=O)c(O)c1C [Compound 3b]

inhibition at 1 µM (KDM6A (UTX) [1]): 9% | inhibition at 10 µM (KDM6A (UTX) [1]): 100% | IC50 (MDA-MB-231 (TNBC BCa); Homo sapiens, MDA-MB-231, 72 h): 1.6 µM
SMILES: CC/C(=C(\c1ccccc1)c1ccc(OCCN(C)Cc2ccc(-c3cn(CCn4ccc(=O)c(O)c4C)nn3)cc2)cc1)c1ccccc1 [Compound 36a]

KDM6A (UTX) Inhibition (%) 1 (μM) (KDM6A (UTX) [2]): 2% | KDM6A (UTX) Inhibition (%) 10 (μM) (KDM6A (UTX) [2]): 100%
SMILES: Cc1c(O)c(=O)ccn1CCCCCCn1ccc(=O)c(O)c1C [Compound 3c]

KDM6A (UTX) Inhibition (%) 1 (μM) (KDM6A (UTX) [2]): 3% | KDM6A (UTX) Inhibition (%) 10 (μM) (KDM6A (UTX) [2]): 100%
SMILES: Cc1c(O)c(=O)ccn1CCCCCCCn1ccc(=O)c(O)c1C [Compound 3d]

inhibition at 1 µM (KDM6A (UTX) [1]): 5% | inhibition at 10 µM (KDM6A (UTX) [1]): 100%
SMILES: Cc1c(O)c(=O)ccn1Cc1ccc(Cn2ccc(=O)c(O)c2C)cc1 [Compound 3f, 1,1′-(1,4-Phenylenebis(methylene))bis(3-hydroxy-2-methylpyridin-4(1H)-one)]

Continued, compound first:

SMILES: Cc1c(O)c(=O)ccn1CCCCCCn1cc(-c2ccc(-c3ccccc3)cc2)nn1 [Compound 2v, 1-(6-(4-([1,1-Biphenyl]-4-yl)-1H-1,2,3-triazol-1-yl)hexyl)-3-hydroxy-2-methylpyridin-4(1H)-one]
concentration at which maximum inhibition of heterochromatin formation / gene repression is reached [3]: 1 µM | inhibition of heterochromatin formation (in words) [3]: significantly inhibited

SMILES: Cc1c(O)c(=O)ccn1CCCCCn1cc(-c2ccc(N(C)C)cc2)nn1 [Compound 2r, 1-(5-(4-(4-(Dimethylamino)phenyl)-1H-1,2,3-triazol-1-yl)pentyl)-3-hydroxy-2-methylpyridin-4(11)-one]
IC50 (MDA-MB-231 (TNBC BCa); 72 h): 12.5 µM

SMILES: Cc1c(O)c(=O)ccn1CCCCCn1cc(-c2ccccc2F)nn1 [Compound 2m]
KDM6A (UTX) Inhibition (%) 1 (μM) (KDM6A (UTX) [2]): 16% | KDM6A (UTX) Inhibition (%) 10 (μM) (KDM6A (UTX) [2]): 100% | IC50 (MDA-MB-231 (TNBC BCa); 72 h): 18.3 µM

SMILES: COc1cccc(-c2cn(CCCCCn3ccc(=O)c(O)c3C)nn2)c1 [Compound 2j, 3-Hydroxy-1-(5-(4-(3-methoxyphenyl)-1H-1,2,3-triazol-1-yl)pentyl)-2-methylpyridin-4(1H)-one]
inhibition at 1 µM (KDM6A (UTX) [1]): 8% | inhibition at 10 µM (KDM6A (UTX) [1]): 100% | IC50 against KDM6A (in words) (KDM6A (UTX) [2]): low micromolar | increase in GFP expression [3]: 20% | inhibition of heterochromatin formation (in words) [3]: significantly inhibited | IC50 (MDA-MB-231 (TNBC BCa); Homo sapiens, MDA-MB-231, 72 h): 19.6 µM

SMILES: COc1ccc2cc(-c3cn(CCCCCCn4ccc(=O)c(O)c4C)nn3)ccc2c1 [Compound 2w, 3-Hydroxy-1-(6-(4-(6-methoxynaphthalen-2-yl)-1H-1,2,3-triazol-1-yl)hexyl)-2-methylpyridin-4(1H)-one]
concentration at which maximum inhibition of heterochromatin formation / gene repression is reached [3]: 1 µM | inhibition of heterochromatin formation (in words) [3]: significantly inhibited

SMILES: Cc1c(O)c(=O)ccn1CCCCCn1cc(-c2ccc(F)cc2)nn1 [Compound 2o, 1-(5-(4-(4-Fluorophenyl)-1H-1,2,3-triazol-1-yl)pentyl)-3-hydroxy-2-methylpyridin-4(1H)-one]
inhibition at 1 µM (KDM6A (UTX) [1]): 10% | inhibition at 10 µM (KDM6A (UTX) [1]): 100%

SMILES: Cc1ccc(-c2cn(CCCCn3ccc(=O)c(O)c3C)nn2)cc1 [Compound 2e, 3-Hydroxy-2-methyl-1-(4-(4-(p-tolyl)-1H-1,2,3-triazol-1-yl)butyl)pyridin-4(1H)-one]
inhibition at 1 µM (KDM6A (UTX) [1]): 13% | inhibition at 10 µM (KDM6A (UTX) [1]): 100%

SMILES: Cc1c(O)c(=O)ccn1CCn1cc(-c2ccccc2)nn1 [Compound 1a]
inhibition at 1 µM (KDM6A (UTX) [1]): 12% | inhibition at 10 µM (KDM6A (UTX) [1]): 96% | inhibition of heterochromatin formation (in words) [3]: weak inhibitors

SMILES: Cc1c(O)c(=O)ccn1CCCCCn1cc(-c2ccccc2C(F)(F)F)nn1 [Compound 2p, 3-Hydroxy-2-methyl-1-(5-(4-(2-(trifluoromethyl)phenyl)-1H-1,2,3-triazol-1-yl)pentyl)pyridin-4(1H)-one]
inhibition at 1 µM (KDM6A (UTX) [1]): 15% | inhibition at 10 µM (KDM6A (UTX) [1]): 99%

SMILES: COc1ccccc1-c1cn(CCCCCn2ccc(=O)c(O)c2C)nn1 [Compound 2h, 3-Hydroxy-1-(5-(4-(2-methoxyphenyl)-1H-1,2,3-triazol-1-yl)pentyl)-2-methylpyridin-4(1H)-one]
inhibition at 1 µM (KDM6A (UTX) [1]): 3% | inhibition at 10 µM (KDM6A (UTX) [1]): 99%

SMILES: Cc1c(O)c(=O)ccn1CCCCCn1cc(-c2ccccn2)nn1 [Compound 2s, 3-Hydroxy-2-methyl-1-(5-(4-(pyridin-2-yl)-1H-1,2,3-triazol-1-yl)pentyl)pyridin-4(1H)-one]
inhibition at 1 µM (KDM6A (UTX) [1]): 15% | inhibition at 10 µM (KDM6A (UTX) [1]): 99%

SMILES: COc1ccc(-c2cn(CCCCCn3ccc(=O)c(O)c3C)nn2)cc1 [Compound 2l, 3-Hydroxy-1-(5-(4-(4-methoxyphenyl)-1H-1,2,3-triazol-1-yl)pentyl)-2-methylpyridin-4(1H)-one]
inhibition at 1 µM (KDM6A (UTX) [1]): 4% | inhibition at 10 µM (KDM6A (UTX) [1]): 100%

SMILES: COc1ccccc1-c1cn(CCCCn2ccc(=O)c(O)c2C)nn1 [Compound 2g, 3-Hydroxy-1-(4-(4-(2-methoxyphenyl)-1H-1,2,3-triazol-1-y)butyl)-2-methylpyridin-4(1H)-one]
IC50 (MDA-MB-231 (TNBC BCa); 72 h): 9.6 µM

SMILES: Cc1c(O)c(=O)ccn1CCCCCn1cc(-c2cccc(F)c2)nn1 [Compound 2n, 1-(5-(4-(3-Fluorophenyl)-1H-1,2,3-triazol-1-yl)pentyl)-3-hydroxy-2-methylpyridin-4(1H)-one]
inhibition at 1 µM (KDM6A (UTX) [1]): 5% | inhibition at 10 µM (KDM6A (UTX) [1]): 100%

SMILES: Cc1c(O)c(=O)ccn1CCCCCn1cc(-c2ccc(-c3ccncc3)cc2)nn1 [Compound 2t, 3-Hydroxy-2-methyl-1-(5-(4-(4-(pyridin-4-yl)phenyl)-1H-1,2,3-triazol-1-yl)pentyl)pyridin-4(1H)-one]
inhibition at 1 µM (KDM6A (UTX) [1]): 8% | inhibition at 10 µM (KDM6A (UTX) [1]): 99% | concentration at which maximum inhibition of heterochromatin formation / gene repression is reached [3]: 10 µM | inhibition of heterochromatin formation (in words) [3]: significantly inhibited
